[ ]: non-standard residue; d: D form. The star is where a group is joined. Butanoyl(4-pyren-1-yl) = O=C(CCCc1ccc2ccc3cccc4ccc1c2c34)*; Biotin = O=C1N[C@H]2[C@H](CS[C@H]2CCCCC(=O)*)N1
Key:
Aβ42 fiber = Aβ42 fiber (Homo sapiens, UniProt P05067); test: Self-fluorescence specificity assay of probe in 10% human CSF; format: binding; design: unit not given here; settings: 70 nM probe; 10% (v/v) normal human CSF; FIG. 2
Method: (§1) The specificity of the probe is confirmed as follows. 70 nM of the peptide probe of SEQ ID NO:22 is incubated with several potential substrates in a solution consisting of 10 mM Hepes (pH 7.0), 0.0074% Tween20 and 10% (v/v) normal human CSF. […] There also is a significant response to Aβ42 fiber down to at least […]. […] Since fibers are easily removed from the reaction by a centrifugation step, specificity for amyloid beta oligomers is easily obtained.

synthetic Aβ42 oligomer = synthetic Aβ42 oligomer (Homo sapiens, UniProt P05067); test: Self-fluorescence assay of pyrene-labeled probe with synthetic Aβ42 oligomer; format: binding; settings: 70 nM probe
Method: 70 nM of the peptide probe of SEQ ID NO:2 is incubated with 4000, 2000, 1000, 450, 250 and 0 pM synthetic Aβ42 oligomer (in triplicate) in a solution consisting of 10 mM Hepes (pH 7.0), 0.0074% Tween20 and 30% (v/v) normal human CSF (Bioreclamations, Inc.) for 0, 3, and 18 hours at room temperature in a final volume of 200 μL in a microtiter plate. The plate is then analyzed using a Tecan safire^2 fluorescence plate reader. For each sample, the net self-fluorescence response (fluorescence emission from 370-385 nm) is determined by subtraction of the self-fluorescence response of the control (0 pM) from the fluorescence response of the experimental sample.
The specificity of the probe is confirmed as follows. 70 nM of the peptide probe of SEQ ID NO:22 is incubated with several potential substrates in a solution consisting of 10 mM Hepes (pH 7.0), 0.0074% Tween20 and 10% (v/v) normal human CSF. […] There also is a significant response to Aβ42 fiber down to at least 100 nN. […]
70 nM of each of the two peptoid probes 1 or 2 is incubated with 15, 5, 1.5 or 0 nM synthetic Aβ42 oligomer (in triplicate). […] The plate is then analyzed using a Tecan safire^2 fluorescence plate reader. For each sample, the self-fluorescence response (fluorescence emission from 370-385 nm) of the peptoid is plotted as a function of amyloid beta aggregate concentration.

human serum albumin [1] = molecular target: T1, human serum albumin (Homo sapiens, UniProt P02768); test: Self-fluorescence specificity assay of probe in 10% human CSF; format: binding; settings: 70 nM probe; 10% (v/v) normal human CSF; except at the highest dose, 0.16 mg/mL; FIG. 2
Method: as §1

carbonic anhydrase = test: as above; format: binding; settings: 70 nM probe; 10% (v/v) normal human CSF; FIG. 2
Method: as §1

Aβ40 monomer [2] = molecular target: T2, Aβ40 monomer (Homo sapiens, UniProt P05067); test: as above; format: binding; settings: 70 nM probe; 10% (v/v) normal human CSF; FIG. 2
Method: as §1

Aβ40 fiber = Aβ40 fiber (Homo sapiens, UniProt P05067); test: as above; format: binding; settings: 70 nM probe; 10% (v/v) normal human CSF; FIG. 2
Method: as §1

Aβ42 monomer [3] = molecular target: T3, Aβ42 monomer (Homo sapiens, UniProt P05067); test: as above; format: binding; settings: 70 nM probe; 10% (v/v) normal human CSF; FIG. 2
Method: as §1

[4] = molecular target: synthetic Aβ42 oligomer (Aβ42 Oligo Type A) (Homo sapiens, UniProt P05067); test: Plate-based ELISA-like assay with immobilized biotinylated peptide probe (6E10-HRP/TMB detection); format: binding
Method: FIG. 4A and FIG. 4B illustrate the results in buffer and 10% soluble mouse brain extract using SEQ ID NO:41 as a peptide probe. […] The white bars indicate control reactions in which peptide are not added. Black bars show the complete reaction in which 9000, 1500, 250, 42, 7, 1.2, 0.2, or 0 pM Aβ42 oligomer is added (in triplicate) to wells containing bound peptide probe of SEQ ID NO:41.
The white bars indicate control reactions in which peptide are not added. Black bars show the complete reaction in which 10% human TBS brain extract containing 750, 250, 85, 28, 9.5, 3.1, or 0 pM Aβ42 oligomer is added (in triplicate) to wells containing bound peptide probe of SEQ ID NO:41.
FIG. 5A and FIG. 5B illustrate the results in 10% (A) and 30% (B) human brain TBS extract using SEQ ID NO:41 as a peptide probe. […] The white bars indicate control reactions in which peptide is not added. Black bars show the complete reaction in which 10% human TBS brain extract containing 750, 250, 85 or 0 pM Aβ42 oligomer is added (in triplicate) to wells containing bound peptide probe of SEQ ID NO:41.
The white bars indicate control reactions in which peptide are not added. Black bars show the complete reaction in which 30% human TBS brain extract containing 750, 250, 85, 28, 9.5, 3.1, or 0 pM Aβ42 oligomer is added (in triplicate) to wells containing bound peptide probe of SEQ ID NO:41.

Aβ40 Dimer = settings: Mouse
Method: (§2) A plate-based ELISA-like assay was developed in which the above-described peptide probes may be used to capture and detect target amyloid beta protein (such as oligomers). […] Streptavidin-coated 96-well plates are prepared, followed by introduction of biotinylated peptide. Sample is then added to the wells and allowed to incubate, such as for two hours at room temperature. Any target amyloid beta protein in the sample will be capture by the immobilized peptide probe. The plate is then washed, such as using a low salt buffer to eliminate potential interfering factors (e.g. endogenous proteins, lipids, and other debris). The remaining amyloid beta aggregate-peptide probe complex is bound to a reporter antibody that is specific for the N-terminus of the amyloid beta sequence (6E10-HRP), and detected by addition of 3,3′,5,5′-tetramethylbenzidine (TMB).
(§3) Soluble brain extracts are prepared according to a known method. For example 5 mL tris-buffered saline (PH 7.4) is added per gram of frozen brain tissue, and then homogenized with a dounce homogenizer (25 strokes). The material is then centrifuged at 21,900× g for 30 minutes at 4 C. The resulting TBS supernatant (soluble extract) is used at 10-30% (v/v) final concentration in the following assays.

human serum albumin [5] = molecular target: T1, human serum albumin; test: Plate-based ELISA-like assay with immobilized biotinylated peptide probe; format: binding
Method: as §2, §3

Aβ40 monomer [6] = molecular target: T2, Aβ40 monomer; test: as above; format: binding; settings: for Limit of detection, Aβ40 Monomer: up to 15 nM
Method: as §2, §3

Aβ42 monomer [7] = molecular target: T3, Aβ42 monomer; test: as above; format: binding; settings: for Limit of detection, Aβ42 Monomer: up to 15 nM
Method: as §2, §3

Aβ42 Oligo (Type B) = Aβ42 Oligo (Type B) (Homo sapiens, UniProt P05067); test: as above; format: binding
Method: as §2, §3

human serum albumin [8] = molecular target: human serum albumin (human, UniProt P02768 25-609); test: plate assay, biotinylated probe on streptavidin plate, 6E10-HRP/TMB detection; Human column (brain extract)

## PBA-KLVFFAEDVGSNKGAIIGLMK(PBA)rr-NH2 ({Butanoyl(4-pyren-1-yl)}-KLVFFAEDVGSNKGAIIGLMK(Butanoyl(4-pyren-1-yl))[dR][dR]-NH2; SMILES CC[C@H](C)[C@H](NC(=O)[C@H](C)NC(=O)CNC(=O)[C@H](CCCCN)NC(=O)[C@H](CC(N)=O)NC(=O)[C@H](CO)NC(=O)CNC(=O)[C@@H](NC(=O)[C@H](CC(=O)O)NC(=O)[C@H](CCC(=O)O)NC(=O)[C@H](C)NC(=O)[C@H](Cc1ccccc1)NC(=O)[C@H](Cc1ccccc1)NC(=O)[C@@H](NC(=O)[C@H](CC(C)C)NC(=O)[C@H](CCCCN)NC(=O)CCCc1ccc2ccc3cccc4ccc1c2c34)C(C)C)C(C)C)C(=O)N[C@H](C(=O)NCC(=O)N[C@@H](CC(C)C)C(=O)N[C@@H](CCSC)C(=O)N[C@@H](CCCCNC(=O)CCCc1ccc2ccc3cccc4ccc1c2c34)C(=O)N[C@H](CCCNC(=N)N)C(=O)N[C@H](CCCNC(=N)N)C(N)=O)[C@@H](C)CC) [SEQ ID NO:22, WT, with 2 C-terminal dArg residues, and alternate label site]
Aβ42 fiber
  lowest Aβ42 fiber concentration giving significant response: ≤ 100
Synthetic Aβ42 oligomer; 10% (v/v) normal human CSF, FIG. 2
  peptide probe fluorescence response to Aβ42 oligomer: strong and dose-dependent response
Human serum albumin [1]
  peptide fluorescence response to human serum albumin: little or no peptide fluorescence response
Carbonic anhydrase
  peptide fluorescence response to carbonic anhydrase: little or no peptide fluorescence response
Aβ40 monomer [2]
  peptide fluorescence response to Aβ40 monomer: little or no peptide fluorescence response
Aβ40 fiber
  peptide fluorescence response to Aβ40 fiber: little or no peptide fluorescence response
Aβ42 monomer [3]
  peptide fluorescence response to Aβ42 monomer: little or no peptide fluorescence response

## PBA-KLVFFAEDVGSNKHAIIELMK(PBA)-NH2 ({Butanoyl(4-pyren-1-yl)}-KLVFFAEDVGSNKHAIIELMK(Butanoyl(4-pyren-1-yl))-NH2; SMILES CC[C@H](C)[C@H](NC(=O)[C@H](C)NC(=O)[C@H](Cc1c[nH]cn1)NC(=O)[C@H](CCCCN)NC(=O)[C@H](CC(N)=O)NC(=O)[C@H](CO)NC(=O)CNC(=O)[C@@H](NC(=O)[C@H](CC(=O)O)NC(=O)[C@H](CCC(=O)O)NC(=O)[C@H](C)NC(=O)[C@H](Cc1ccccc1)NC(=O)[C@H](Cc1ccccc1)NC(=O)[C@@H](NC(=O)[C@H](CC(C)C)NC(=O)[C@H](CCCCN)NC(=O)CCCc1ccc2ccc3cccc4ccc1c2c34)C(C)C)C(C)C)C(=O)N[C@H](C(=O)N[C@@H](CCC(=O)O)C(=O)N[C@@H](CC(C)C)C(=O)N[C@@H](CCSC)C(=O)N[C@@H](CCCCNC(=O)CCCc1ccc2ccc3cccc4ccc1c2c34)C(N)=O)[C@@H](C)CC) [SEQ ID NO:2, Salt bridge at G29H and G33E]
Synthetic Aβ42 oligomer; 10 mM Hepes pH 7.0, 0.0074% Tween20, 30% (v/v) normal human CSF, emission 370-385 nm, FIG. 1
  Aβ42 oligomer concentration statistically distinguishable from the control reaction (net self-fluorescence response, t-test): 450 pM

## PBA-KLVFFAEDVGSNKHAIIELMK(PBA)GLVPR GSGK(biotin)-NH2 [SEQ ID NO:41]
[4]; 10% human TBS brain extract, FIG. 4B
  lowest amount of amyloid beta aggregate detected in plate assay (t-test): 28 pM
[4]; 30% human TBS brain extract, FIG. 5B
  amyloid beta aggregate detectable down to: ≤ 85 pM
[4]; Human
  Limit of detection, Aβ42 Oligo (Type A): ~28 pM
[4]; Mouse
  Limit of detection, Aβ42 Oligo (Type A): ~28 to 85 pM
[4]; buffer system, FIG. 4A
  lowest amount of amyloid beta aggregate detected in plate assay (t-test): 7 pM
Aβ40 Dimer
  Limit of detection, Aβ40 Dimer: 850 pM
Human serum albumin [5]; Human, up to 0.15 mg/mL
  Limit of detection, has: Not detected
Human serum albumin [5]; Mouse
  Limit of detection, has: Not detected
Human serum albumin [5]; plate assay
  TMB response to human serum albumin: little to no TMB response
Aβ40 monomer [6]; Human
  Limit of detection, Aβ40 Monomer: Not detected
Aβ40 monomer [6]; Mouse
  Limit of detection, Aβ40 Monomer: Not detected
Aβ40 monomer [6]; plate assay
  TMB response to Aβ40 monomer: little to no TMB response
Aβ42 monomer [7]; Human
  Limit of detection, Aβ42 Monomer: Not detected
Aβ42 monomer [7]; Mouse
  Limit of detection, Aβ42 Monomer: Not detected
Aβ42 monomer [7]; plate assay
  TMB response to Aβ42 monomer: little to no TMB response
Aβ42 Oligo (Type B); Human
  Limit of detection, Aβ42 Oligo (Type B): 8.5 pM
Aβ42 Oligo (Type B); Mouse
  Limit of detection, Aβ42 Oligo (Type B): ~8.5 pM

B1: peptide probe of SEQ ID NO:41 (peptide)
peptide: {Butanoyl(4-pyren-1-yl)}-KLVFFAEDVGSNKHAIIELMK(Butanoyl(4-pyren-1-yl))GLVPRGSGK(Biotin)-NH2
SMILES: CC[C@H](C)[C@H](NC(=O)[C@H](C)NC(=O)[C@H](Cc1c[nH]cn1)NC(=O)[C@H](CCCCN)NC(=O)[C@H](CC(N)=O)NC(=O)[C@H](CO)NC(=O)CNC(=O)[C@@H](NC(=O)[C@H](CC(=O)O)NC(=O)[C@H](CCC(=O)O)NC(=O)[C@H](C)NC(=O)[C@H](Cc1ccccc1)NC(=O)[C@H](Cc1ccccc1)NC(=O)[C@@H](NC(=O)[C@H](CC(C)C)NC(=O)[C@H](CCCCN)NC(=O)CCCc1ccc2ccc3cccc4ccc1c2c34)C(C)C)C(C)C)C(=O)N[C@H](C(=O)N[C@@H](CCC(=O)O)C(=O)N[C@@H](CC(C)C)C(=O)N[C@@H](CCSC)C(=O)N[C@@H](CCCCNC(=O)CCCc1ccc2ccc3cccc4ccc1c2c34)C(=O)NCC(=O)N[C@@H](CC(C)C)C(=O)N[C@H](C(=O)N1CCC[C@H]1C(=O)N[C@@H](CCCNC(=N)N)C(=O)NCC(=O)N[C@@H](CO)C(=O)NCC(=O)N[C@@H](CCCCNC(=O)CCCC[C@@H]1SC[C@@H]2NC(=O)N[C@@H]21)C(N)=O)C(C)C)[C@@H](C)CC
notes: P22 with a thrombin site linker and biotin at the C-terminus, immobilised on streptavidin-coated plates; also called AD317; biotinylated peptide probe
Human serum albumin [8]
  binding result: no binding (tested: up to 0.15 mg/mL)

Reference: patent US20120282169A1, “DETECTION AND TREATMENT OF TRAUMATIC BRAIN INJURY” (Adlyfe, Inc., priority 2009, published 2012)
